This passage reports MBC and MIC results from ChEMBL document CHEMBL2311326, “Synthesis and evaluation of novel sulfenamides as novel anti Methicillin-resistant Staphylococcus aureus agents” (2013).

In brackets after ≈: the same amount, converted by molar mass.

Common to all, as to assay type: functional
The test system of assay [1] is Staphylococcus aureus. The assay is described as follows: Antimicrobial activity against methicillin-resistant Staphylococcus aureus isolate Chaoyang.
The test system of assay [2] is Staphylococcus aureus. Put plainly: Antimicrobial activity against methicillin-resistant Staphylococcus aureus isolate 309-4.
Assay [3] concerns Staphylococcus aureus. Put plainly: Antimicrobial activity against methicillin-resistant Staphylococcus aureus isolate 309-7.
In assay [4] the test system is Staphylococcus aureus. The assay is described as follows: Antimicrobial activity against Staphylococcus aureus ATCC 6538.
Assay [5] deals with Staphylococcus aureus. Put plainly: Antimicrobial activity against methicillin-sensitive Staphylococcus aureus isolate 309-1.
Assay [6] concerns Staphylococcus aureus. The assay is described as follows: Antimicrobial activity against methicillin-resistant Staphylococcus aureus isolate 6-42.
Assay [7] relates to Staphylococcus aureus. Put plainly: Antimicrobial activity against methicillin-resistant Staphylococcus aureus isolate 309-8.
Assay [8] has as its system Pseudomonas aeruginosa. The assay is described as follows: Antimicrobial activity against Pseudomonas aeruginosa PAO1.
For assay [9], the system named is Staphylococcus aureus. The assay is described as follows: Antimicrobial activity against methicillin-resistant Staphylococcus aureus.
Assay [10] has as its system Bacillus subtilis. Put plainly: Antimicrobial activity against Bacillus subtilis ATCC 6633.

By MBC is commonly meant the smallest concentration meeting the test's criterion for killing. A higher MBC goes with less potent killing. What is called MIC is the lowest concentration that inhibits growth of the organism. With `O=[N+]([O-])c1ccc(S)cc1`, the MBC in assay [1], in assay [2], in [3], in assay [4], in assay [5] and in [6] was greater than 100 µg/mL each time. The same compound gave an MBC in [7] greater than 100 µg/mL. Further, the MIC turned out to be 1.56 µg/mL (≈ 10.1 µM) in assay [1]; 1.56 µg/mL (≈ 10.1 µM) in assay [2]; 1.56 µg/mL (≈ 10.1 µM) in assay [3]; 3.13 µg/mL (≈ 20.2 µM) in [4]; 1.56 µg/mL (≈ 10.1 µM) in [5]; 1.56 µg/mL (≈ 10.1 µM) in [6]. The MIC in assay [7] worked out at 1.56 µg/mL (≈ 10.1 µM).

With `COC(=O)CC[C@H](N)C(=O)OC`, the minimal bactericidal concentration (MBC) in [1], in [2], in assay [3], in [4], in assay [5] and in assay [6] was greater than 100 µg/mL in each case. In addition, the MBC in assay [7] was greater than 100 µg/mL. In addition, the MIC in assay [1], in assay [2], in [3], in [4], in assay [5] and in [6] was greater than 100 µg/mL in each case. In [7], this compound yielded an MIC greater than 100 µg/mL.

Regarding `COC(=O)[C@H](Cc1c[nH]c2ccccc12)NSc1ccccc1[N+](=O)[O-]`, the MBC in [1], in [2], in assay [3], in assay [4], in assay [5] and in [6] was greater than 100 µg/mL in each case. Also, the MBC in assay [7] is greater than 100 µg/mL. In addition, the minimal inhibitory concentration (MIC) in assay [1] was 3.13 µg/mL (≈ 8.43 µM); in assay [2] it was 25 µg/mL (≈ 67.3 µM); in assay [3], 12.5 µg/mL (≈ 33.7 µM); in [8], greater than 100 µg/mL; in [4], 6.25 µg/mL (≈ 16.8 µM); in [5], 25 µg/mL (≈ 67.3 µM). Moreover, the MIC in assay [9] came out at 3.13 µg/mL (≈ 8.43 µM); in assay [6], 3.13 µg/mL (≈ 8.43 µM); in assay [10] it was 12.5 µg/mL (≈ 33.7 µM); in assay [7], 25 µg/mL (≈ 67.3 µM).

In the case of `CCOC(=O)[C@H](Cc1c[nH]c2ccccc12)NSc1ccccc1[N+](=O)[O-]`, the MBC in assay [1], in assay [2], in assay [3], in [4], in assay [5] and in assay [6] was greater than 100 µg/mL in each case. In [7], the MBC is greater than 100 µg/mL. The MIC was 1.56 µg/mL (≈ 4.05 µM) in assay [1]; 12.5 µg/mL (≈ 32.4 µM) in assay [2]; 6.25 µg/mL (≈ 16.2 µM) in assay [3]; greater than 100 µg/mL in assay [8]; 6.25 µg/mL (≈ 16.2 µM) in [4]; 12.5 µg/mL (≈ 32.4 µM) in assay [5]. For the same compound, the MIC in [9] was found to be 1.56 µg/mL (≈ 4.05 µM); in assay [6] it was 1.56 µg/mL (≈ 4.05 µM); in assay [10] it was 6.25 µg/mL (≈ 16.2 µM); in assay [7], 6.25 µg/mL (≈ 16.2 µM).

As for `CC(C)OC(=O)[C@H](Cc1c[nH]c2ccccc12)NSc1ccccc1[N+](=O)[O-]`, the MBC in [1], in [2], in assay [3], in [4], in assay [5] and in assay [6] was greater than 100 µg/mL in each case. The same compound showed an MBC in assay [7] greater than 100 µg/mL. The MIC was 3.13 µg/mL (≈ 7.84 µM) in assay [1]; 25 µg/mL (≈ 62.6 µM) in assay [2]; 6.25 µg/mL (≈ 15.6 µM) in [3]; greater than 100 µg/mL in [8]; 6.25 µg/mL (≈ 15.6 µM) in [4]; 25 µg/mL (≈ 62.6 µM) in assay [5]. The MIC is 3.13 µg/mL (≈ 7.84 µM) in [9], 3.13 µg/mL (≈ 7.84 µM) in [6], 12.5 µg/mL (≈ 31.3 µM) in assay [10] and 6.25 µg/mL (≈ 15.6 µM) in assay [7].

Take `COC(=O)[C@H](Cc1c[nH]c2ccccc12)NSc1ccccc1`: the MIC in assay [8] is greater than 100 µg/mL; in assay [9] it was 50 µg/mL (≈ 153 µM); in assay [10] it was 25 µg/mL (≈ 76.6 µM).

Take `CCOC(=O)[C@H](Cc1c[nH]c2ccccc12)NSc1ccccc1`: the values for the MIC in [8], in [9] and in [10] were greater than 100 µg/mL, 25 µg/mL (≈ 73.4 µM) and 25 µg/mL (≈ 73.4 µM), respectively.

Consider `COC(=O)CC[C@H](NSc1ccc([N+](=O)[O-])cc1)C(=O)OC`, for which the MBC in [1], in [2], in assay [3], in assay [4], in assay [5] and in assay [6] was greater than 100 µg/mL throughout. In addition, in assay [7], the MBC is greater than 100 µg/mL. For the same compound, the MIC in assay [1] is 1.56 µg/mL (≈ 4.75 µM); in assay [2], 6.25 µg/mL (≈ 19 µM); in assay [3], 3.13 µg/mL (≈ 9.53 µM); in [8] it was greater than 100 µg/mL; in assay [4] it was 6.25 µg/mL (≈ 19 µM); in assay [5], 6.25 µg/mL (≈ 19 µM). Moreover, the minimal inhibitory concentration (MIC) amounted to 1.56 µg/mL (≈ 4.75 µM) in assay [9], 1.56 µg/mL (≈ 4.75 µM) in [6], 3.13 µg/mL (≈ 9.53 µM) in [10] and 3.13 µg/mL (≈ 9.53 µM) in assay [7].

For the compound `O=C1C(=O)N(Sc2ccccc2[N+](=O)[O-])c2c(Cl)cccc21`, the MBC in [1], in assay [2], in assay [3], in assay [4], in assay [5] and in assay [6] was greater than 100 µg/mL each time. Besides, the MBC in assay [7] is greater than 100 µg/mL. In addition, the MIC in assay [1] is 6.25 µg/mL (≈ 18.7 µM); in assay [2], 12.5 µg/mL (≈ 37.3 µM); in assay [3], 6.25 µg/mL (≈ 18.7 µM); in assay [8], greater than 100 µg/mL; in assay [4], 12.5 µg/mL (≈ 37.3 µM); in assay [5] it was 12.5 µg/mL (≈ 37.3 µM). The MIC in [9] was 6.25 µg/mL (≈ 18.7 µM); in assay [6], 6.25 µg/mL (≈ 18.7 µM); in assay [10], greater than 100 µg/mL; in [7] it was 12.5 µg/mL (≈ 37.3 µM).

In the case of `CCOC(=O)[C@@H](N)Cc1c[nH]c2ccccc12`, the MBC in assay [1], in [2], in assay [3], in assay [4], in assay [5] and in assay [6] was greater than 100 µg/mL throughout. Moreover, the MBC in assay [7] was greater than 100 µg/mL. Besides, the MIC in [1], in assay [2], in assay [3], in assay [4], in assay [5] and in assay [6] was greater than 100 µg/mL each time. This compound also registered an MIC in assay [7] greater than 100 µg/mL.

`CN[C@H](CC(C)C)C(=O)N[C@H]1C(=O)N[C@@H](CC(N)=O)C(=O)N[C@H]2C(=O)N[C@H]3C(=O)N[C@H](C(=O)N[C@H](C(=O)O)c4cc(O)cc(O)c4-c4cc3ccc4O)[C@H](O)c3ccc(c(Cl)c3)Oc3cc2cc(c3O[C@@H]2O[C@H](CO)[C@@H](O)[C@H](O)[C@H]2O[C@H]2C[C@](C)(N)[C@H](O)[C@H](C)O2)Oc2ccc(cc2Cl)[C@H]1O` [VANCOMYCIN]: the MBC came to 1 µg/mL (≈ 0.69 µM) in assay [1]; 1 µg/mL (≈ 0.69 µM) in [2]; 1 µg/mL (≈ 0.69 µM) in [3]; 2 µg/mL (≈ 1.38 µM) in assay [4]; 1 µg/mL (≈ 0.69 µM) in [5]; 1 µg/mL (≈ 0.69 µM) in [6]. In addition, the minimum bactericidal concentration (MBC) in assay [7] stood at 1 µg/mL (≈ 0.69 µM). For the same compound, the MIC in assay [8] was greater than 100 µg/mL; in [10], 0.5 µg/mL (≈ 0.345 µM).
